# According to patent US11702422B2, “Imidazopyridazines as modulators of IL-17” (Janssen Pharmaceutica NV, priority 2020, dated 2023):
# Key:
# [1] = system: IL-17A-induced G-CSF production in human normal keratinocyte (NHK); assay: NHK Assay: IL-17A-induced G-CSF production in human normal keratinocytes; assay type: cell-based; settings: 24 h, adult normal human keratinocytes, IL-17A 5 ng/mL, simple average if tested more than once
# Outline: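 G-CSF released by primary adult human keratinocytes after 24 h at 37° C was quantified by HTRF via standard curve to give IC50. Stimulus was 5 ng/mL IL-17A pre-mixed 1 h at rt with compound dilutions, in 5% FBS and 0.2% DMSO. Cell viability was assessed in parallel with CellTiter-Glo.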
# [2] = biological target: IL-17A(FLAG-Tagged): IL-17RA(His-Tagged) (Homo sapiens, UniProt Q16552, K93Q); assay: IL-17A(FLAG-Tagged): IL-17RA(His-Tagged) Binding Disruption Eu-HTRF Assay; settings: IL-17A/IL-17RA binding disruption, simple average if tested more than once
# Outline: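 IC50 comes from a one-site competition fit of the HTRF 665/620 nm ratio. Compound dilutions (2-fold, 22 points) were held 1 h rt with FLAG-tagged IL-17A dimer, then His-tagged IL-17RA plus Eu-cryptate anti-FLAG and D2 anti-His antibodies were added for 2 h rt.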
# Chain of UniProt Q16552 (Q16552 with tags, fused parts or gaps K93Q): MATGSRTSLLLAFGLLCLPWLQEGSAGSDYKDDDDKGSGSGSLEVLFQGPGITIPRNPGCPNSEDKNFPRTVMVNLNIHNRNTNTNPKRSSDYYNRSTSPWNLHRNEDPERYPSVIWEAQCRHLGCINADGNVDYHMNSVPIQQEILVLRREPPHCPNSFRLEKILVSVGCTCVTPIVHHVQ
Compound,"IC50 ([1]; Homo sapiens, Keratinocyte) [nM]",IC50 [2] [nM],IC50 [1] [nM]
"CC(CC(=O)N[C@@H](c1cnn2cc([C@@H](NC(=O)c3conc3OCC(F)F)C3CCC(F)(F)CC3)nc2c1)C1CC1)C(F)(F)F (single isomer, unassigned) [Example 298, N—((S)-(7-((R)-Cyclopropyl((R*)-4,4,4-trifluoro-3-methylbutanamido)methyl)imidazo[1,2-b]pyridazin-2-yl)(4,4-difluorocyclohexyl)methyl)-3-(2,2-difluoroethoxy)isoxazole-4-carboxamide]",610,250,
"CC(CC(=O)N[C@@H](c1cnn2cc([C@@H](NC(=O)c3conc3OCC(F)F)C3CCC(F)(F)CC3)nc2c1)C1CC1)C(F)(F)F (single isomer, unassigned) [Example 299, N—((S)-(7-((R)-Cyclopropyl((S*)-4,4,4-trifluoro-3-methylbutanamido)methyl)imidazo[1,2-b]pyridazin-2-yl)(4,4-difluorocyclohexyl)methyl)-3-(2,2-difluoroethoxy)isoxazole-4-carboxamide]",,300,840
"CC(CC(=O)N[C@@H](c1cnn2cc([C@@H](NC(=O)c3nonc3C3CC3)C3CCC(F)(F)CC3)nc2c1)C1CC1)C(F)(F)F (single isomer, unassigned) [Example 300, 4-Cyclopropyl-N—((S)-(7-((R)-cyclopropyl((R*)-4,4,4-trifluoro-3-methylbutanamido)methyl)imidazo[1,2-b]pyridazin-2-yl)(4,4-difluorocyclohexyl)methyl)-1,2,5-oxadiazole-3-carboxamide]",,110,320
"CC(CC(=O)N[C@@H](c1cnn2cc([C@@H](NC(=O)c3nonc3C3CC3)C3CCC(F)(F)CC3)nc2c1)C1CC1)C(F)(F)F (single isomer, unassigned) [Example 301, 4-Cyclopropyl-N—((S)-(7-((R)-cyclopropyl((S*)-4,4,4-trifluoro-3-methylbutanamido)methyl)imidazo[1,2-b]pyridazin-2-yl)(4,4-difluorocyclohexyl)methyl)-1,2,5-oxadiazole-3-carboxamide]",,53,56
"CC(C)n1nccc1C(=O)N[C@H](c1cn2ncc([C@H](NC(=O)CO[C@@H](C)C(F)(F)F)C3CC3)cc2n1)C1CCC(F)(F)CC1 (single isomer, unassigned) [Example 310]",220,170,
"CC(C)n1nccc1C(=O)N[C@H](c1cn2ncc([C@H](NC(=O)CO[C@H](C)C(F)(F)F)C3CC3)cc2n1)C1CCC(F)(F)CC1 (single isomer, unassigned) [Example 311]",330,210,
"Cc1nonc1C(=O)N[C@@H](COC(C)(C)C)c1cn2ncc(C(NC(=O)CCC(F)(F)F)C3CC3)cc2n1 (single isomer, unassigned) [Example 314, N—((R)-2-(tert-Butoxy)-1-(7-((R*)-cyclopropyl(4,4,4-trifluorobutanamido)methyl)imidazo[1,2-b]pyridazin-2-yl)ethyl)-4-methyl-1,2,5-oxadiazole-3-carboxamide]",,560,2100
"Cc1nonc1C(=O)N[C@@H](COC(C)(C)C)c1cn2ncc(C(NC(=O)CCC(F)(F)F)C3CC3)cc2n1 (single isomer, unassigned) [Example 315, N—((R)-2-(tert-Butoxy)-1-(7-((S*)-cyclopropyl(4,4,4-trifluorobutanamido)methyl)imidazo[1,2-b]pyridazin-2-yl)ethyl)-4-methyl-1,2,5-oxadiazole-3-carboxamide]",,13000,> 20000
"CC(C)n1nccc1C(=O)N[C@@H](COC(C)(C)C)c1cn2ncc(C(NC(=O)CCC(F)(F)F)C3CC3)cc2n1 (single isomer, unassigned) [Example 316, N—((R)-2-(tert-Butoxy)-1-(7-((R*)-cyclopropyl(4,4,4-trifluorobutanamido)methyl)imidazo[1,2-b]pyridazin-2-yl)ethyl)-1-isopropyl-1H-pyrazole-5-carboxamide]",,240,700
"CC(C)n1nccc1C(=O)N[C@@H](COC(C)(C)C)c1cn2ncc(C(NC(=O)CCC(F)(F)F)C3CC3)cc2n1 (single isomer, unassigned) [Example 317, N—((R)-2-(tert-Butoxy)-1-(7-((S*)-cyclopropyl(4,4,4-trifluorobutanamido)methyl)imidazo[1,2-b]pyridazin-2-yl)ethyl)-1-isopropyl-1H-pyrazole-5-carboxamide]",,9900,> 20000
"Cc1nonc1C(=O)N[C@H](c1cn2ncc([C@H](NC(=O)CC3CC(F)(F)C3(F)F)C3CC3)cc2n1)C1CCC(F)(F)CC1 (single isomer, unassigned) [Example 324, N—((S)-(7-((R)-Cyclopropyl(2-((R*)-2,2,3,3-tetrafluorocyclobutyl)acetamido)methyl)imidazo[1,2-b]pyridazin-2-yl)(4,4-difluorocyclohexyl)methyl)-4-methyl-1,2,5-oxadiazole-3-carboxamide]",300,61,
"Cc1nonc1C(=O)N[C@H](c1cn2ncc([C@H](NC(=O)CC3CC(F)(F)C3(F)F)C3CC3)cc2n1)C1CCC(F)(F)CC1 (single isomer, unassigned) [Example 325, N—((S)-(7-((R)-Cyclopropyl(2-((S*)-2,2,3,3-tetrafluorocyclobutyl)acetamido)methyl)imidazo[1,2-b]pyridazin-2-yl)(4,4-difluorocyclohexyl)methyl)-4-methyl-1,2,5-oxadiazole-3-carboxamide]",,91,300
"Cc1nonc1C(=O)N[C@H](c1cn2ncc([C@H](NC(=O)C(C)CC(F)F)C3CC3)cc2n1)C1CCC(F)(F)CC1 (single isomer, unassigned) [Example 329, N—((S)-(7-((R)-Cyclopropyl((S*)-4,4-difluoro-2-methylbutanamido)methyl)imidazo[1,2-b]pyridazin-2-yl)(4,4-difluorocyclohexyl)methyl)-4-methyl-1,2,5-oxadiazole-3-carboxamide]",2200,930,
"Cc1nonc1C(=O)N[C@H](c1cn2ncc([C@H](NC(=O)C(C)CC(F)F)C3CC3)cc2n1)C1CCC(F)(F)CC1 (single isomer, unassigned) [Example 330, N—((S)-(7-((R)-Cyclopropyl((R*)-4,4-difluoro-2-methylbutanamido)methyl)imidazo[1,2-b]pyridazin-2-yl)(4,4-difluorocyclohexyl)methyl)-4-methyl-1,2,5-oxadiazole-3-carboxamide]",,560,2200
"Cc1nonc1C(=O)N[C@H](c1cn2ncc([C@H](NC(=O)C(F)C3CC3)C3CC3)cc2n1)C1CCC(F)(F)CC1 (single isomer, unassigned) [Example 331, N—((S)-(7-((R)-Cyclopropyl((R*)-2-cyclopropyl-2-fluoroacetamido)methyl)imidazo[1,2-b]pyridazin-2-yl)(4,4-difluorocyclohexyl)methyl)-4-methyl-1,2,5-oxadiazole-3-carboxamide]",,310,1500
"Cc1nonc1C(=O)N[C@H](c1cn2ncc([C@H](NC(=O)C(F)C3CC3)C3CC3)cc2n1)C1CCC(F)(F)CC1 (single isomer, unassigned) [Example 332, N—((S)-(7-((R)-Cyclopropyl((S*)-2-cyclopropyl-2-fluoroacetamido)methyl)imidazo[1,2-b]pyridazin-2-yl)(4,4-difluorocyclohexyl)methyl)-4-methyl-1,2,5-oxadiazole-3-carboxamide]",,1500,12000
"CCC(CC(=O)N[C@@H](c1cnn2cc([C@@H](NC(=O)c3nonc3C)C3CCC(F)(F)CC3)nc2c1)C1CC1)CC(F)(F)F (single isomer, unassigned) [Example 342, N—((S)-(7-((R)-Cyclopropyl((R*)-3-ethyl-5,5,5-trifluoropentanamido)methyl)imidazo[1,2-b]pyridazin-2-yl)(4,4-difluorocyclohexyl)methyl)-4-methyl-1,2,5-oxadiazole-3-carboxamide]",,340,1400
"CCC(CC(=O)N[C@@H](c1cnn2cc([C@@H](NC(=O)c3nonc3C)C3CCC(F)(F)CC3)nc2c1)C1CC1)CC(F)(F)F (single isomer, unassigned) [Example 343, N—((S)-(7-((R)-Cyclopropyl((S*)-3-ethyl-5,5,5-trifluoropentanamido)methyl)imidazo[1,2-b]pyridazin-2-yl)(4,4-difluorocyclohexyl)methyl)-4-methyl-1,2,5-oxadiazole-3-carboxamide]",,170,430
"Cc1nonc1C(=O)N[C@H](c1cn2ncc([C@H](NC(=O)C(F)CC3CC3)C3CC3)cc2n1)C1CCC(F)(F)CC1 (single isomer, unassigned) [Example 344, N—((S)-(7-((R)-Cyclopropyl((R*)-3-cyclopropyl-2-fluoropropanamido)methyl)imidazo[1,2-b]pyridazin-2-yl)(4,4-difluorocyclohexyl)methyl)-4-methyl-1,2,5-oxadiazole-3-carboxamide]",,52,230
"Cc1nonc1C(=O)N[C@H](c1cn2ncc([C@H](NC(=O)C(F)CC3CC3)C3CC3)cc2n1)C1CCC(F)(F)CC1 (single isomer, unassigned) [Example 345, N—((S)-(7-((R)-Cyclopropyl((S*)-3-cyclopropyl-2-fluoropropanamido)methyl)imidazo[1,2-b]pyridazin-2-yl)(4,4-difluorocyclohexyl)methyl)-4-methyl-1,2,5-oxadiazole-3-carboxamide]",,180,670
